Source: patent publication US9643941B2, “2,2′-tandem dithiazole compound, preparation method therefor, and use thereof” (SHANGHAI INSTITUTE OF MATERIA MEDICA, CHINESE ACADEMY OF …, priority 2014, dated 2017)
Where two headings read alike, the source gives them in different places.

Columns and labels:
[1] = system: human source multiple myeloma cell line 8266; assay: Anti-tumor activity test in cellular level (MTT); details: for IC50: Homo sapiens, Multiple myeloma cell, 72 h, read-out: IC50 on human multiple myeloma cell line 8266
Human source HDAC3 = Human source HDAC3 (Homo sapiens, UniProt O15379); assay: Inhibition activity against histone deacetylase 3 (fluorescence, AMC substrate); assay type: biochemical; details: IC50 ± SD/SE
Chain of Human source HDAC3 (O15379 whole entry): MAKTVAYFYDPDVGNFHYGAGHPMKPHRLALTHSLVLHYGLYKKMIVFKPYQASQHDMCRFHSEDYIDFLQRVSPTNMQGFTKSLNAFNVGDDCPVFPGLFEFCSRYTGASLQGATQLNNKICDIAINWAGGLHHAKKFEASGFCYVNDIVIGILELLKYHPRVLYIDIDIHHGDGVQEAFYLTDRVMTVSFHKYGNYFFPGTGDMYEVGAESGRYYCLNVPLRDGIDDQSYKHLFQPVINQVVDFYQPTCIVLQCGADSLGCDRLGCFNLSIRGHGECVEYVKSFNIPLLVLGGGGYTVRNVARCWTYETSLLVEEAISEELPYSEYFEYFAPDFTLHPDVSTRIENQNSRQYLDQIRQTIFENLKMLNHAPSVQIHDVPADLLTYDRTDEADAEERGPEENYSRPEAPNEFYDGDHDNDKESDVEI
Chain of Human source HDAC3 (Q9Y618 395-489 partner limits assumed): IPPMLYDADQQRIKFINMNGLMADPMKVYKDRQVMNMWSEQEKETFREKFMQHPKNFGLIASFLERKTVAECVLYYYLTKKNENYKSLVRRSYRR
Experimental: (§1) 2. Materials for the Test: • Human source HDAC1, HDAC3, HDAC4, and HDAC6 were obtained by the Group of Doctor LI Jia in Shanghai Institute of Materia Medica by using the baculovirus expression system and purifying. • Substrate: HDAC1, 3, 4: Ac-Lys-Tyr-Lys (Ac)-AMC; • HDAC6: Boc-lys (Ac)-AMC • ∠All were purchased from GL Biochem (Shanghai) Ltd.;
(§2) Enzyme activity was measured in 96-well or 384-well flat-bottom microplates using fluorescence detection. […] The initial reaction speed was calculated by detecting the changes of the fluorescence signal over time.
(§3) Sample treatment: The sample was dissolved in DMSO and stored at low temperature.
(§4) Illustration about the data processing and the result: In the first screening, the activity of the sample was tested at a single concentration, e.g., 20 μg/ml. […] The bottom and top of the fitting curve were set to 0 and 100 for the most inhibitor screening models.

Human source HDAC6 = biological target: T1, Human source HDAC6 (Homo sapiens, UniProt Q9UBN7); assay: Inhibition activity against histone deacetylase 6 (fluorescence, AMC substrate); assay type: biochemical; details: for IC50: IC50 ± SD/SE
T1 sequence (Q9UBN7 1-1215): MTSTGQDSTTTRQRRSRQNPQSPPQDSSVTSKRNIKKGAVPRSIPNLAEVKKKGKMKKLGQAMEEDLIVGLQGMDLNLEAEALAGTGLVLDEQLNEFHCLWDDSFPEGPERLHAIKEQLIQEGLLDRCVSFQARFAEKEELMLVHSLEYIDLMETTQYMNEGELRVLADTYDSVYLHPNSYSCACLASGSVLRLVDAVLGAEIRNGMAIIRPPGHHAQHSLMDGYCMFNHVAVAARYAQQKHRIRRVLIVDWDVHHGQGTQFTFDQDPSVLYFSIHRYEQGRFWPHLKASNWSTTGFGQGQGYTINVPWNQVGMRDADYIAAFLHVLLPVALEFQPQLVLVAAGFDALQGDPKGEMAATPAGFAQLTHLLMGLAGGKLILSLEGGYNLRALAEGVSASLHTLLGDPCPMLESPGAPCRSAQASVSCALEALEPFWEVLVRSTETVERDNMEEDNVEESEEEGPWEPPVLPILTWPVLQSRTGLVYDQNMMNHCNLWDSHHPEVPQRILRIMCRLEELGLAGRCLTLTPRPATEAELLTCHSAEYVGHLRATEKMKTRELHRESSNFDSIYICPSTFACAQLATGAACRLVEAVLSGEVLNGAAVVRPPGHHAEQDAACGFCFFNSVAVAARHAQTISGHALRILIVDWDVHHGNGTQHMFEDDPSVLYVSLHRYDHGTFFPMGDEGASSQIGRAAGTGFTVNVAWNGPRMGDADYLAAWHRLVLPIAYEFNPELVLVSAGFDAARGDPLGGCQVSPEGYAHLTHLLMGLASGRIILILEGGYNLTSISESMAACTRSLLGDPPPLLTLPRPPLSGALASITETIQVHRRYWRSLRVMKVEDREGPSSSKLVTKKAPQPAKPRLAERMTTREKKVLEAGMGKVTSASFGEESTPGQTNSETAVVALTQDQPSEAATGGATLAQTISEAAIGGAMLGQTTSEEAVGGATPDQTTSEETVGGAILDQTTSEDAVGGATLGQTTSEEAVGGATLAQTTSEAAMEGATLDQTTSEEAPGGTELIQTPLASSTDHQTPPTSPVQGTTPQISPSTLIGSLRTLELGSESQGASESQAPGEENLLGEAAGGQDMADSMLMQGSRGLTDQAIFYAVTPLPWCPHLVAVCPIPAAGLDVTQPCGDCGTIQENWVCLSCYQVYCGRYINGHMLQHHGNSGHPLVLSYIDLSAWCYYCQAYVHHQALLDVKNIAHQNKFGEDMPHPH
Experimental: as §1, §2, §3, §4

Human source HDAC4 = Human source HDAC4 (Homo sapiens, UniProt P56524); assay: Inhibition activity against histone deacetylase 4 (fluorescence, AMC substrate); assay type: biochemical
Chain of Human source HDAC4 (P56524 whole entry): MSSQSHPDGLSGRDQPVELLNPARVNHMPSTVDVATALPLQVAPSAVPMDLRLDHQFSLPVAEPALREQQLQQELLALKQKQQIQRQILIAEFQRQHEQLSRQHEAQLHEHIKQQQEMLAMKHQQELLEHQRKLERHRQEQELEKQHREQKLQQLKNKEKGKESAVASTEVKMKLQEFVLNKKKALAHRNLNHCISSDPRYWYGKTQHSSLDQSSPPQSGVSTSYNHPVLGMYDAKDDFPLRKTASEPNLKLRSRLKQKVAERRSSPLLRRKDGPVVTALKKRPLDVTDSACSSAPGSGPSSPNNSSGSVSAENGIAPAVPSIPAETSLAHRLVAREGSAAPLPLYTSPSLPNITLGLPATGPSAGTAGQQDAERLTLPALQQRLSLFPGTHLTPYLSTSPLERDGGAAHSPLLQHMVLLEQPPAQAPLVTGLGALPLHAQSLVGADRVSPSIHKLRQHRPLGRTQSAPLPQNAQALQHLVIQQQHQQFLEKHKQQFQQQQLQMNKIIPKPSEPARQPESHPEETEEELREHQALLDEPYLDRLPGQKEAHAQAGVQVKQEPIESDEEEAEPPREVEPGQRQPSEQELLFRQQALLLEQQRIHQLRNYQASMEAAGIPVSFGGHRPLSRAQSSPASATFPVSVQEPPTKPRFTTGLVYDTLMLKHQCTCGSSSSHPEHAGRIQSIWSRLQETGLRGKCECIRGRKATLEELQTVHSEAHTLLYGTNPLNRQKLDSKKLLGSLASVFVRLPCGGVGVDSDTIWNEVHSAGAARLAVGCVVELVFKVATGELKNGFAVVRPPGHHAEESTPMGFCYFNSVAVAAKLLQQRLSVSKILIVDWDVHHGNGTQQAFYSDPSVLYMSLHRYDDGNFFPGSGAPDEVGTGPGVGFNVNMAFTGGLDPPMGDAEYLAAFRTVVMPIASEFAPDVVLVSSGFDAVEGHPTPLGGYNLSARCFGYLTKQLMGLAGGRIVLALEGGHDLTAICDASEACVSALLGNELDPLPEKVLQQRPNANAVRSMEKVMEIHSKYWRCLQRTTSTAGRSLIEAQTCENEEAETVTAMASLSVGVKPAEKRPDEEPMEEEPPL
Experimental: The test was carried out to show the inhibition activity of the compounds in this patent application against human source histone deacetylases 1, 3, 4, 6.
as §1, §2, §3, §4

Human source HDAC1 = Human source HDAC1 (Homo sapiens, UniProt Q13547); assay: Inhibition activity against histone deacetylase 1 (fluorescence, AMC substrate); assay type: biochemical; details: IC50 ± SD/SE
Chain of Human source HDAC1 (Q13547 whole entry): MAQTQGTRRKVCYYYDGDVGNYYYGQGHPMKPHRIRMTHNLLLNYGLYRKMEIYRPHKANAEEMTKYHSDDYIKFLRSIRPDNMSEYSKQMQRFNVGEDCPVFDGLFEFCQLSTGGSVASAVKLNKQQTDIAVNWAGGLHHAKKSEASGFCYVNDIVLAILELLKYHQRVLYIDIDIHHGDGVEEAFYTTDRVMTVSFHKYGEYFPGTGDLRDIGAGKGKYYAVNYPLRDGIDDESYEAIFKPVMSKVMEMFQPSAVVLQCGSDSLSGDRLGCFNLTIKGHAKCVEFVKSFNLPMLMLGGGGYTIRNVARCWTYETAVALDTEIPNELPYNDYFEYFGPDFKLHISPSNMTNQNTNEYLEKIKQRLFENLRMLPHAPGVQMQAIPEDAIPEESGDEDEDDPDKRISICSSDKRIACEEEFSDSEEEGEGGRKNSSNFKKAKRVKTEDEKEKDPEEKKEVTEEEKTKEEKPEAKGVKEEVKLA
Experimental: as §1, §2, §3, §4

EAE mouse model = assay: Drug efficacy in EAE mouse model; assay type: in vivo
Experimental: The activity of the compound as a histone deacetylase inhibitor in the treatment of EAE was tested by drug efficacy tests for compounds in the EAE mouse model.
Antigen MOG35-55 ([…]) was added with complete Freund's adjuvant (comprising 5 mg/ml of inactivated Mycobacterium tuberculosis) to be emulsified. 8-week aged female C57BL/6 mouse was injected subcutaneously with 200 μg of emulsified MOG35-55 antigen, while 200 ng of pertussis toxin was injected into each mouse. The day of induction was day 0. On day 2, 200 ng of pertussis toxin was further injected to each mouse. The symptoms of the mice were scored and recorded daily. The scoring rules were as follows,
0 point: normal, asymptomatic
3 points: the mouse was paralysis of hind limbs, and the mouse was loss of mobility.
4 points: the mouse was weakness or paralysis of forelimbs.
5 points: the mouse was dead or dying
2. Materials for the Test: • EAE mouse: Shanghai Slac Laboratory Animal Co., Ltd.; • Antigen MOG35˜55: GL Biochem (Shanghai) Ltd.;
The drug was directly added with the CMC—Na, ground and ultrasonic suspended into a uniform state. The dose was 10 mg/kg, twice a day by intragastric administration. The control group was directly administrated with PBS.

[2] = IC50 ± SD/SE, read-out: IC50 HDAC4

SMILES	IC50 [1] [nM]	IC50 (Human source HDAC3) [nM]	activity against HDAC6 on changing trifluoroacetyl ketone to hydrazone (Human source HDAC6)	IC50 (Human source HDAC6) [nM]	IC50 (Human source HDAC4; [2]) [nM]	IC50 (Human source HDAC1) [nM]	IC50 (Human source HDAC4; read-out: IC50 against HDAC4) [nM]	increase of activity at the cellular level compared to CFH367-C ([1]; cell line 8266)	incidence of EAE model mice (EAE mouse model; 10 mg/kg twice a day, intragastric)	therapeutic effect on the clinical symptoms of EAE model mice (EAE mouse model; 10 mg/kg twice a day, intragastric, clinical score (the FIGURE))	Incidence number/total number (EAE mouse model; EAE mice, 10 mg/kg twice a day, intragastric)	disease severity versus solvent control group (EAE mouse model; P<0.01)
O=C(NCCCCC(=O)C(F)(F)F)c1nc(-c2nc3c(s2)CCCC3)sc1C1CC1 [HD 3]	240 ± 21	–	–	–	20	–	–	–	–	–	–	–
O=C(NCCCCC(=O)C(F)(F)F)c1nc(-c2nccs2)sc1Cc1ccccc1 [HD 54]	–	60	–	60	70	70 ± 10	–	–	–	–	–	–
CC(C)Cc1sc(-c2nccs2)nc1C(=O)NCCCCC(=O)C(F)(F)F [HD 6]	457 ± 12	–	–	–	40	–	–	–	–	–	–	–

Continued, in another order:

IC50 [1] [nM]	IC50 (Human source HDAC3) [nM]	activity against HDAC6 on changing trifluoroacetyl ketone to hydrazone (Human source HDAC6)	IC50 (Human source HDAC6) [nM]	IC50 (Human source HDAC4; [2]) [nM]	IC50 (Human source HDAC1) [nM]	IC50 (Human source HDAC4; read-out: IC50 against HDAC4) [nM]	SMILES	increase of activity at the cellular level compared to CFH367-C ([1]; cell line 8266)	incidence of EAE model mice (EAE mouse model; 10 mg/kg twice a day, intragastric)	therapeutic effect on the clinical symptoms of EAE model mice (EAE mouse model; 10 mg/kg twice a day, intragastric, clinical score (the FIGURE))	Incidence number/total number (EAE mouse model; EAE mice, 10 mg/kg twice a day, intragastric)	disease severity versus solvent control group (EAE mouse model; P<0.01)
2140 ± 22	350	can be improved	80 ± 10	160 ± 10	180 ± 30	–	CC(=O)N/N=C(\CCCCNC(=O)c1nc(-c2nccs2)sc1C1CC1)C(F)(F)F [HD 37]	–	–	–	–	–
117	400 ± 10	can be improved	350 ± 10	450 ± 30	500 ± 50	–	O=C(CO)N/N=C(/CCCCNC(=O)c1nc(-c2nccs2)sc1C1CC1)C(F)(F)F [HD 46]	about 10 times	–	–	–	–
333 ± 11	–	–	–	20	–	~20	O=C(NCCCCC(=O)C(F)(F)F)c1nc(-c2nccs2)sc1C1CC1 [HD 1]	–	Effectively Reduce the Incidence	good therapeutic effect	3/6	significantly lower
–	–	–	20	70	–	–	Cc1cnc(-c2nc(C(=O)NCCCCC(=O)C(F)(F)F)c(C3CC3)s2)s1 [HD 55]	–	–	–	–	–
–	50	–	40	40	50	–	CCc1sc(-c2nccs2)nc1C(=O)NCCCCC(=O)C(F)(F)F [HD 53]	–	–	–	–	–
